Patent publication US20220218679A1, “NOVEL COMPOUNDS AND PHARMACEUTICAL COMPOSITIONS THEREOF FOR THE TREATMENT OF INFLAMMATORY DISORDERS” (Galapagos NV, priority 2019, published 2022)

Tested on: sclerodermatous cGvHD in BALB/c (H-2d) mice
Assay: Murine sclerodermatous chronic graft-versus host disease (cGvHD)
Format: in vivo
Conditions: 10 mg/kg b.i.d., day 21 to day 56 post transplantation
Excerpt: 5.10. Murine Sclerodermatous Chronic Graft-Versus Host Disease (cGvHD)
In this cGvHD model, fibrosis is induced in BALB/c (H-2d) mice by allogeneic transplantation of bone marrow cells and splenocytes from B10.D2 (H-2d) donor mice (minor HLA mismatch). The recipient mice develop inflammation-driven dermal and pulmonary fibrosis resembling patients with rapidly progressive diffuse cutaneous systemic sclerosis. (Zerr et al., 2012)
The treatment is provided only after the onset of first clinical symptoms of sclerodermatous cGvHD. […]
The anti-fibrotic effects on skin were analysed by determination of dermal thickness, quantification of lesional collagen and staining for myofibroblasts.
In case of positive effects on skin fibrosis, effects on pulmonary fibrosis were analysed by Ashcroft scoring, by hydroxyproline content and by quantification of the collagen covered area using SirCol staining.
Based on individual animal raw data, the means for each group were determined and percent change from disease controls was calculated. Treatment groups were compared to disease controls using a one-way analysis of variance (1-way ANOVA) with a Dunnett's post-hoc analysis for measured (parametric) data or a Kruskal-Wallis test with a Dunn's post-hoc analysis for scored (non-parametric) data.

For COc1cn2nc(CCC(C)(C)O)cc2cc1NC(=O)c1cccn(C2CC2)c1=O [Compound 1, 1-cyclopropyl-N-[2-(3-hydroxy-3-methylbutyl)-6-methoxypyrazolo[1,5-a]pyridin-5-yl]-2-oxopyridine-3-carboxamide], the “effect on Lung fibrosis (Ashcroft, SirCol)” value was “statistically significant effect” and the “effect on skin fibrosis (Hydroxyproline)” value was “statistically significant effect”.
